ChEMBL document CHEMBL1201862, “PubChem BioAssay data set” (2004)
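Compound exposure: 48 hours, 5 concentrations, 96-well plates. GI50 marks 50% less growth.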 Active and inactive are the calls of the source. No stated cut-off is given here; in the data, active = GI50 up to about 1.1 µM and inactive = higher. Non-standard residues stand in square brackets, D forms with d. Residues, ends and D or L forms follow the SMILES beside them. ξ: configuration not given here. Pentanoyl(2-O,4-OH,5-Cl) = O=C(O)C(O)CC(O)CCl; Ile(3ξ) = CCC(C)[C@H](N)C(=O)O; NMeV = CN[C@H](C(=O)O)C(C)C; NMeA = CN[C@@H](C)C(=O)O; βAla = NCCC(=O)O

Assays:
Assay in all cases: NCI-60 cell line screen, 48 h
DLD-1 = system: DLD-1
DMS-273 = system: DMS-273
M19-MEL = system: M19-MEL
BT-549 = system: BT-549
DU-145 = system: DU-145
Hs-578T = system: Hs-578T
MDA-MB-435 = system: MDA-MB-435
LXFL 529 = system: LXFL 529
RXF 631 = system: RXF 631

SMILES | GI50 (DLD-1) | GI50 (DMS-273) | GI50 (M19-MEL) | GI50 (BT-549) | GI50 (DU-145) | GI50 (Hs-578T) | GI50 (MDA-MB-435) | GI50 (LXFL 529) | GI50 (RXF 631)
COC1C(O)C(n2ncc3c(SC)nc(SC)nc32)OC1C(O)CO (stereo not drawn) | > 100 µM (inactive) | > 100 µM (inactive) | > 100 µM (inactive) | – | – | – | – | – | –
CCCCN(C(=O)c1ccccc1)C1CCC(=O)c2[nH]c3ccccc3c21 (stereo not drawn) | – | – | – | 36.9 µM (inactive) | 75 µM (inactive) | 16.9 µM (inactive) | 23.1 µM (inactive) | – | –
Cc1ccc(S(=O)(=O)N(C=O)N=C2CCN(Cc3ccccc3)CC2)cc1 | > 100 µM (inactive) | > 100 µM (inactive) | > 100 µM (inactive) | – | – | – | – | > 100 µM (inactive) | > 100 µM (inactive)
C=CCOCCC(CC=C)C(=O)CC(=O)OC (stereo not drawn) | > 100 µM (inactive) | 45.3 µM (inactive) | – | – | – | – | – | – | –
COc1cc2c(oc(=O)c3cc(C)cc(OC)c32)c2c(C3OC(C)C(O)C(C)(O)C3O)ccc(O)c12 (stereo not drawn) | 0.845 µM (active) | 0.336 µM (active) | 0.706 µM (active) | – | – | – | – | – | –
CSc1nc(NC2OC(COC(C)=O)C(OC(C)=O)C(OC(C)=O)C2OC(C)=O)c2c(OC(C)=O)c(C)c(=O)oc2n1 (stereo not drawn) | > 100 µM (inactive) | – | > 100 µM (inactive) | – | – | – | – | > 100 µM (inactive) | –
CCC1OC2C(CC=C(C)C)=C3OC(C)(O)C(C)(CC)C(OC(C)=O)C3=C3OC(=O)C=C1C32 (stereo not drawn) | – | – | – | 21.5 µM (inactive) | 39.6 µM (inactive) | 39.7 µM (inactive) | 21.3 µM (inactive) | – | –
CCOP(=O)(CN=C(c1ccccc1)c1ccccc1)OCC | – | – | – | – | > 100 µM (inactive) | > 100 µM (inactive) | > 100 µM (inactive) | – | –
Nc1ccccc1Sc1ccc(Cl)cc1 | 34.6 µM (inactive) | 26.1 µM (inactive) | 23 µM (inactive) | – | – | – | – | 38.2 µM (inactive) | –
O=C/C(=C1/C=Cc2cc([N+](=O)[O-])ccc2S1)c1ccccc1 | – | – | – | – | > 100 µM (inactive) | > 100 µM (inactive) | > 100 µM (inactive) | – | –
O=C1C=C(Sc2ccccc2)c2nccc3c2c1nc1ccccc13 | – | – | – | 16 µM (inactive) | 40.9 µM (inactive) | 15.8 µM (inactive) | 16.9 µM (inactive) | – | –
N#Cc1c(NC(=S)NC(=O)c2ccccc2)nc2c(c1-c1ccccc1)CCCC2 | – | – | – | 30.5 µM (inactive) | > 100 µM (inactive) | 17 µM (inactive) | > 100 µM (inactive) | – | –
N#CC1=C(O)NC(O)=C(C#N)C1c1c(Cl)cccc1Cl | 16.7 µM (inactive) | 26.2 µM (inactive) | 21.4 µM (inactive) | – | – | – | – | – | –
C=CCC12CC(=O)C=C1CCC1(C2)OCCO1 (stereo not drawn) | > 100 µM (inactive) | > 100 µM (inactive) | > 100 µM (inactive) | – | – | – | – | > 100 µM (inactive) | > 100 µM (inactive)
CSCCC(NC(=O)OCc1ccccc1)P(=O)(O)c1ccccc1 (stereo not drawn) | – | – | – | – | > 100 µM (inactive) | > 100 µM (inactive) | > 100 µM (inactive) | – | –
Nc1ccc(N(S(=O)(=O)c2ccccc2)S(=O)(=O)c2ccccc2)c(Cl)c1 | – | – | – | 56.5 µM (inactive) | 95.7 µM (inactive) | 64 µM (inactive) | 15.1 µM (inactive) | – | –
CC(C)(C)/N=c1/n(C(C)(C)C)oc(=O)n1C(C)(C)C | – | – | – | > 100 µM (inactive) | – | > 100 µM (inactive) | – | – | –

SMILES | GI50 (DLD-1) | GI50 (DMS-273) | GI50 (M19-MEL) | GI50 (BT-549) | GI50 (DU-145) | GI50 (Hs-578T) | GI50 (MDA-MB-435) | GI50 (LXFL 529) | GI50 (RXF 631)
CCOC(=O)c1c[nH]c2cc3c(cc2c1=O)CCS3(=O)=O.CCOC(=O)c1c[nH]c2ccc3c(c2c1=O)S(=O)(=O)CC3 | > 100 µM (inactive) | > 100 µM (inactive) | > 100 µM (inactive) | – | – | – | – | – | –
Nc1ccccc1S(=O)(=O)c1ccccc1 | > 100 µM (inactive) | > 100 µM (inactive) | > 100 µM (inactive) | – | – | – | – | > 100 µM (inactive) | > 100 µM (inactive)
CN(C)c1ccc(C2CC(=O)CC(c3ccc(N(C)C)cc3)C23C(=O)NC(=O)NC3=O)cc1 (stereo not drawn) | – | – | – | 23 µM (inactive) | > 25 µM (inactive) | – | > 25 µM (inactive) | – | –
Cc1nn(C)c2c1C(=O)N(C)CC(=O)N2C | – | – | – | > 100 µM (inactive) | > 100 µM (inactive) | > 100 µM (inactive) | > 100 µM (inactive) | – | –
CN(C)CCCNC(=O)N/N=C/c1ccccc1 | > 100 µM (inactive) | > 100 µM (inactive) | > 100 µM (inactive) | – | – | – | – | – | –
CCC(C)[C@@H]1NC(=O)[C@@H]2CCCN2C(=O)C(CC(O)CCl)OC(=O)CCNC(=O)[C@H](C)N(C)C(=O)[C@H](C(C)C)N(C)C1=O (stereo partly drawn) (cyclo([Ile(3ξ)][NMeV][NMeA][βAla][Pentanoyl(2-O,4-OH,5-Cl)]P)) | – | – | – | > 100 µM (inactive) | > 100 µM (inactive) | > 91.6 µM (inactive) | > 100 µM (inactive) | – | –
Cc1c(Cl)c(=O)oc2cc(OCC(=O)c3ccccc3)ccc12 | – | – | – | > 100 µM (inactive) | > 100 µM (inactive) | > 100 µM (inactive) | > 100 µM (inactive) | – | –
O=c1c(-c2ccccc2)c2oc(c1-c1ccccc1)CS(=O)(=O)CCC2 | 21.6 µM (inactive) | 22.5 µM (inactive) | 17 µM (inactive) | – | – | – | – | 17.7 µM (inactive) | –
CC(C)CC(N)C(=O)NC(CNC(CCC(N)=O)C(=O)NC(CC(C)C)C(=O)NC(CC(C)C)C(=O)O)Cc1ccc2ccccc2c1 (stereo not drawn) | – | – | – | > 10 µM (inactive) | > 10 µM (inactive) | > 10 µM (inactive) | > 10 µM (inactive) | – | –
O=C1NC(=O)C(CCO)(c2ccccc2)C(=O)N1 | > 100 µM (inactive) | > 100 µM (inactive) | > 100 µM (inactive) | – | – | – | – | – | –
COc1ccc(C2c3cc4c(cc3OC(NCCO)C2C)OCO4)cc1 (stereo not drawn) | – | – | – | 16.7 µM (inactive) | 29.4 µM (inactive) | 19.3 µM (inactive) | 23.6 µM (inactive) | – | –
COc1ccc2[nH]c3c(C)c4ccncc4c(C)c3c2c1 | 0.123 µM (active) | 0.218 µM (active) | – | – | – | – | – | – | –
CC(C(=O)NCCNC(=O)CCCC(=O)N(C)O)C(=O)NCCNC(=O)CCCC(=O)N(C)O | – | – | – | – | > 100 µM (inactive) | > 100 µM (inactive) | > 100 µM (inactive) | – | –
c1ccc2c(c1)NCc1cc3ccccc3nc1O2 | > 100 µM (inactive) | > 100 µM (inactive) | > 100 µM (inactive) | – | – | – | – | – | –
O=C(O)c1ccc(Nc2c3ccccc3nc3ccccc23)cc1 | – | 38.9 µM (inactive) | 66.7 µM (inactive) | – | – | – | – | – | –
Cc1ccc(C#CS(=O)(=O)C(F)(F)F)cc1 | > 100 µM (inactive) | > 100 µM (inactive) | > 100 µM (inactive) | – | – | – | – | – | –
